# Test results: US11299492B2, “JAK kinase inhibitor compounds for treatment of respiratory disease” (THERAVANCE BIOPHARMA R&D IP, LLC, priority 2015, dated 2022)
# Columns and labels:
# [1] = tested on: IL-13 induced pSTAT6 induction in lung tissue; test: Murine model of IL-13 induced pSTAT6 induction in lung tissue; type: in vivo; conditions: mouse lung; for pSTAT6 inhibition in the pharmacodynamic assay: IL-13 challenge; for lung concentration smaller than that of the corresponding compound of the invention by a factor: pharmacodynamic assay, C-1 vs Ex 1, C-2 vs Ex 7, C-3 vs Ex 13, C-4 vs Ex 6
# Description: I1-13 is an important cytokine underlying the pathophysiology of asthma (Kudlacz et al. Eur. J Pharmacol, 2008, 582, 154-161). IL-13 binds to cell surface receptors activating members of the Janus family of kinases (JAK) which then phosphorylate STAT6 and subsequently activates further transcription pathways. In the described model, a dose of IL-13 was delivered locally into the lungs of mice to induce the phosphorylation of STAT6 (pSTAT6) which is then measured as the endpoint.
# Adult balb/c mice from Harlan were used in the assay. On the day of study, animals were lightly anesthetized with isoflurane and administered either vehicle or test compound (0.5 mg/mL, 50 μL total volume over several breaths) via oral aspiration. Animals were placed in lateral recumbency post dose and monitored for full recovery from anesthesia before being returned to their home cage. Four hours later, animals were once again briefly anesthetized and challenged with either vehicle or IL-13 ([…] total dose delivered, 50 μL total volume) via oral aspiration before being monitored for recovery from anesthesia and returned to their home cage. One hour after vehicle or IL-13 administration, lungs were collected for both pSTAT6 detection using an anti-pSTAT6 ELISA (rabbit mAb capture/coating antibody; mouse mAb detection/report antibody: anti-pSTAT6-pY641; secondary antibody: anti-mouse IgG-HRP) and analyzed for total drug concentration as described above in Assay 4.
# Selected compounds of the invention were tested in the assay. Activity in the model is evidenced by a decrease in the level of pSTAT6 present in the lungs of treated animals at 5 hours compared to the vehicle treated, IL-13 challenged control animals. The difference between the control animals which were vehicle-treated, IL-13 challenged and the control animals which were vehicle-treated, vehicle challenged dictated the 0% and 100% inhibitory effect, respectively, in any given experiment.
# [2] = Pharmacokinetics in plasma and lung in mouse; type: in vivo; conditions: oral aspiration, lung AUC (μg hr/g) / plasma AUC (μg hr/mL)
# Description: Plasma and lung levels of test compounds and ratios thereof were determined in the following manner. BALB/c mice from Charles River Laboratories were used in the assay. Test compounds were individually formulated in 20% propylene glycol in pH 4 citrate buffer at a concentration of 0.2 mg/mL and 50 uL of the dosing solution was introduced into the trachea of a mouse by oral aspiration. At various time points (typically 0.167, 2, 6, 24 hr) post dosing, blood samples were removed via cardiac puncture and intact lungs were excised from the mice. Blood samples were centrifuged (Eppendorf centrifuge, 5804R) for 4 minutes at approximately 12,000 rpm at 4° C. to collect plasma. Lungs were padded dry, weighed, and homogenized at a dilution of 1:3 in sterile water. Plasma and lung levels of test compound were determined by LC-MS analysis against analytical standards constructed into a standard curve in the test matrix. A lung to plasma ratio was determined as the ratio of the lung AUC in μg hr/g to the plasma AUC in μg hr/mL, where AUC is conventionally defined as the area under the curve of test compound concentration vs. time.
# [3] = tested on: IL-13 induced STAT6 phosphorylation in BEAS-2B human lung epithelial cells; test: AlphaScreen JAK1 cellular potency assay (BEAS-2B); type: cell-based; conditions: for fold less potent than the corresponding compound of the invention in the BEAS-2B cellular assay: C-1 vs Ex 1, C-2 vs Ex 7, C-3 vs Ex 13, C-4 vs Ex 6; for BEAS-2B pIC50: IL-13 induced STAT6 phosphorylation, BEAS-2B cells
# Description: The AlphaScreen JAK1 cellular potency assay was carried out by measuring interleukin-13 (IL-13, R&D Systems) induced STAT6 phosphorylation in BEAS-2B human lung epithelial cells (ATCC). The anti-STAT6 antibody (Cell Signaling Technologies) was conjugated to AlphaScreen acceptor beads (Perkin Elmer), while the anti-pSTAT6 (pTyr641) antibody (Cell Signaling Technologies) was biotinylated using EZ-Link Sulfo-NHS-Biotin (Thermo Scientific).
# BEAS-2B cells were grown at 37° C. in a 5% CO2 humidified incubator in 50% DMEM/50% F-12 medium (Life Technologies) supplemented with 10% FBS (Hyclone), 100 U/mL penicillin, 100 μg/mL streptomycin (Life Technologies), and 2 mM GlutaMAX (Life Technologies). On day 1 of the assay, cells were seeded at a 7,500 cells/well density in white poly-D-lysine-coated 384-well plates (Corning) with 25 μL medium, and were allowed to adhere overnight in the incubator. On day 2 of the assay, the medium was removed and replaced with 12 L of assay buffer (Hank's Balanced Salt Solution/HBSS, 25 mM HEPES, and 1 mg/ml bovine serum albumin/BSA) containing dose-responses of test compounds. Compounds were serially diluted in DMSO and then diluted another 1000-fold in media to bring the final DMSO concentration to 0.1%. Cells were incubated with test compounds at 37° C. for 1 h, and followed by the addition of 12 μl of pre-warmed IL-13 (80 ng/ml in assay buffer) for stimulation. After incubating at 37° C. for 30 min, the assay buffer (containing compound and IL-13) was removed, and 10 μl of cell lysis buffer (25 mM HEPES, 0.1% SDS, 1% NP-40, 5 mM MgCl2, 1.3 mM EDTA, 1 mM EGTA, and supplement with Complete Ultra mini protease inhibitors and PhosSTOP from Roche Diagnostics). The plates were shaken at ambient temperature for 30 min before the addition of detection reagents. A mixture of biotin-anti-pSTAT6 and anti-STAT6 conjugated acceptor beads was added first and incubated at ambient temperature for 2 h, followed by the addition of streptavidin conjugated donor beads (Perkin Elmer). After a minimum of 2 h incubation, the assay plates were read on the EnVision plate reader.
# Results were expressed as the negative logarithm of the IC50 value, pIC50.
# [4] = Dynamic moisture sorption assessment; type: physicochemical
# Description: Dynamic moisture sorption (DMS) measurement was performed using a VTI atmospheric microbalance, SGA-100 system (VTI Corp., Hialeah, Fla. 33016). A weighed sample was used and the humidity was lowest possible value (close to 0% RH) at the start of the analysis. The DMS analysis consisted of an initial drying step (˜0% RH) for 120 minutes, followed by two cycles of sorption and desorption with a scan rate of 5% RH/step over the humidity range of 5% RH to 90% RH. The DMS run was performed isothermally at 25° C.
compound,measurement,setting,value
CCc1cc(O)c(F)cc1-c1ccc2c(-c3nc4c([nH]3)CCN(C3CN(C5CCS(=O)(=O)C5)C3)C4)n[nH]c2c1 (stereo not drawn) [Example 1-15],pSTAT6 inhibition in the pharmacodynamic assay,[1],exceptions
"CCc1cc(O)c(F)cc1-c1ccc2c(-c3nc4c([nH]3)CCN(C[C@@H]3CCCN3C)C4)n[nH]c2c1 [Example 11, (S)-5-ethyl-2-fluoro-4-(3-(5-((1-methylpyrrolidin-2-yl)methyl)-4,5,6,7-tetrahydro-1H-imidazo[4,5-c]pyridin-2-yl)-1H-indazol-6-yl)phenol]",Lung to Plasma ratio Assay 4,[2],A (A denotes a ratio>100)
"CCc1cc(O)c(F)cc1-c1ccc2c(-c3nc4c([nH]3)CCN(CC3CCCOC3)C4)n[nH]c2c1 (stereo not drawn) [Example C-3, reference compound]",fold less potent than the corresponding compound of the invention in the BEAS-2B cellular assay,[3],3 fold
same,lung concentration smaller than that of the corresponding compound of the invention by a factor,[1],13
CCc1cc(O)c(F)cc1-c1ccc2c(-c3nc4c([nH]3)CCN(C3CN(CCC#N)C3)C4)n[nH]c2c1 [Example 1-8],BEAS-2B pIC50,[3],A (A represents a pIC50 value≥8 (IC50≤10 nM))
"CCc1cc(O)c(F)cc1-c1ccc2c(-c3nc4c([nH]3)CCN(C[C@H]3COCCN3)C4)n[nH]c2c1 [Example 13, (S)-5-Ethyl-2-fluoro-4-(3-(5-(morpholin-3-ylmethyl)-4,5,6,7-tetrahydro-1H-imidazo[4,5-c]pyridin-2-yl)-1H-indazol-6-yl)phenol]",Lung to Plasma ratio Assay 4,[2],A (A denotes a ratio>100)
CCc1cc(O)c(F)cc1-c1ccc2c(-c3nc4c([nH]3)CCN(CC3CNC3)C4)n[nH]c2c1 [Example 14-7],Lung to Plasma ratio Assay 4,[2],A (A denotes a ratio>100)
"CCc1cc(O)c(F)cc1-c1ccc2c(-c3nc4c([nH]3)CCN(C3CCN(C)CC3)C4)n[nH]c2c1 [crystalline hydrate, Crystalline hydrate of 5-ethyl-2-fluoro-4-(3-(5-(1-methylpiperidin-4-yl)-4,5,6,7-tetrahydro-1H-imidazo[4,5-c]pyridin-2-yl)-1H-indazol-6-yl)phenol]",weight gain,"[4]; humidity range of 5% to 90% relative humidity, 25° C",less than 0.12%
same,hygroscopicity,"[4]; two cycles of sorption and desorption, 5% to 90% RH",non-hygroscopic
"CCc1cc(O)c(F)cc1-c1ccc2c(-c3nc4c([nH]3)CCN(C[C@@H]3COCCN3)C4)n[nH]c2c1 [Example 14, (R)-5-Ethyl-2-fluoro-4-(3-(5-(morpholin-3-ylmethyl)-4,5,6,7-tetrahydro-1H-imidazo[4,5-c]pyridin-2-yl)-1H-indazol-6-yl)phenol]",Lung to Plasma ratio Assay 4,[2],A (A denotes a ratio>100)
"CCc1cc(O)c(F)cc1-c1ccc2c(-c3nc4c([nH]3)CCN(CCN3CCC[C@@H]3C)C4)n[nH]c2c1 [Example 15, (S)-5-ethyl-2-fluoro-4-(3-(5-(2-(2-methylpyrrolidin-1-yl)ethyl)-4,5,6,7-tetrahydro-1H-imidazo[4,5-c]pyridin-2-yl)-1H-indazol-6-yl)phenol]",Lung to Plasma ratio Assay 4,[2],A (A denotes a ratio>100)
CCc1cc(O)c(F)cc1-c1ccc2c(-c3nc4c([nH]3)CCN(C3CN(CCOC)C3)C4)n[nH]c2c1 [Example 1-6],BEAS-2B pIC50,[3],A (A represents a pIC50 value≥8 (IC50≤10 nM))
"CCc1cc(O)c(F)cc1-c1ccc2c(-c3nc4c([nH]3)CCN(C3CC(C)C3)C4)n[nH]c2c1 (stereo not drawn) [Example C-1, 5-Ethyl-2-fluoro-4-(3-(5-(3-methylcyclobutyl)-4,5,6,7-tetrahydro-1H-imidazo[4,5-c]pyridin-2-yl)-1H-indazol-6-yl)phenol]",lung concentration smaller than that of the corresponding compound of the invention by a factor,[1],36
"CCc1cc(O)c(F)cc1-c1ccc2c(-c3nc4c([nH]3)CCN(CCNC3CC(OC)C3)C4)n[nH]c2c1 (stereo not drawn) [Example 8, 5-Ethyl-2-fluoro-4-(3-(5-(2-((3-methoxycyclobutyl)amino)ethyl)-4,5,6,7-tetrahydro-1H-imidazo[4,5-c]pyridin-2-yl)-1H-indazol-6-yl)phenol]",Lung to Plasma ratio Assay 4,[2],A (A denotes a ratio>100)
"CCc1cc(O)c(F)cc1-c1ccc2c(-c3nc4c([nH]3)CCN(CCC(C)C)C4)n[nH]c2c1 [Example C-2, reference compound]",fold less potent than the corresponding compound of the invention in the BEAS-2B cellular assay,[3],6 fold
same,lung concentration smaller than that of the corresponding compound of the invention by a factor,[1],52
CCc1cc(O)c(F)cc1-c1ccc2c(-c3nc4c([nH]3)CCN(CCNC3CC(OC)C3)C4)n[nH]c2c1 (stereo not drawn) [Example 3-30],BEAS-2B pIC50,[3],A (A represents a pIC50 value≥8 (IC50≤10 nM))
CCc1cc(O)c(F)cc1-c1ccc2c(-c3nc4c([nH]3)CCN(CCNC3(C#N)CC3)C4)n[nH]c2c1 [Example 3-1],pSTAT6 inhibition in the pharmacodynamic assay,[1],exceptions
"CCc1cc(O)c(F)cc1-c1ccc2c(-c3nc4c([nH]3)CCN(C3CCC(C)CC3)C4)n[nH]c2c1 (stereo not drawn) [Example C-4, reference compound]",fold less potent than the corresponding compound of the invention in the BEAS-2B cellular assay,[3],6 fold
same,lung concentration smaller than that of the corresponding compound of the invention by a factor,[1],23
CCc1cc(O)c(F)cc1-c1ccc2c(-c3nc4c([nH]3)CCN(CCN(C)CC(C)C)C4)n[nH]c2c1 [Example 3-33],Lung to Plasma ratio Assay 4,[2],A (A denotes a ratio>100)
